Laboratory results published in US10611750B2, “Tetrahydroquinoline compositions as bet bromodomain inhibitors” (FORMA Therapeutics, Inc., priority 2013, dated 2020).
pIC50: −log10 of the molar value. Read-outs that look alike come from different tables or passages of the source.

Tests used:
[1] = target: T1, BRD4 Bromodomain 1 (BRD4 BD1) (Homo sapiens, UniProt O60885); assay: AlphaScreen binding assay, BRD4 BD1; settings: His-tagged BRD4 BD1 50 nM, biotinylated H4 (1-21) K5/8/12/16 tetra-acetylated peptide 50 nM, compounds listed under IC50 range headings
T1 construct: 44-168 and BRD4 BD2
Method in brief: (§1)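 Compound dilution series were mixed with His-tagged BRD4 bromodomain and biotinylated tetra-acetylated H4 (1-21) peptide at pH 7.3 (BD1 and peptide at 50 nM, BD2 and peptide at 100 nM). Donor and acceptor beads were then added, and plates were equilibrated at least 1 h before reading. IC50 values were fitted with a four-parameter logistic model.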

[2] = target: T2, BRD4 Bromodomain 2 (BRD4 BD2) (Homo sapiens, UniProt O60885); assay: AlphaScreen binding assay, BRD4 BD2; settings: His-tagged BRD4 BD2 100 nM, biotinylated H4 (1-21) K5/8/12/16 tetra-acetylated peptide 100 nM, compounds listed under IC50 range headings
T2 construct: 333-460 were cloned, expressed, and purified to homogeneity
Method in brief: as §1

[3] = system: acute myelocytic leukemia (AML) cell line MV4-11; assay: Oncology cell growth assay (3-day proliferation, CellTiter-Glo); type: cell-based; settings: Homo sapiens, MV4-11 cells, 3000 cells/well, compounds listed under IC50 range headings, read-out: MV411 IC50 (gIC50, inhibition of proliferation)
Method in brief: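 MV4-11 AML cells (RPMI 1640, 10% FBS) plated at 3000 cells/well and exposed 72 h to compound at final 10 to 0.0045 μM (3-fold series). Viability read by CellTiter-Glo luminescence; gIC50 from four-parameter logistic fit between DMSO control and no-cell background.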

Row | Structure (SMILES) | pIC50 [1] | pIC50 [2] | pIC50 ([3]; MV4-11, 72 h) | pIC50 ([3]; 72 hours)
1 | CCCOc1c(C2CCN(C(=O)NCC)CC2)ccc2c1CC[C@H](C)N2C(C)=O [I-356, (S)-4-(1-acetyl-2-methyl-5-propoxy-1,2,3,4-tetrahydroquinolin-6-yl)-N-ethylpiperidine-1-carboxamide] | ≤ 5.00 | 6.30 to 7.30 | < 6.00 | –
2 | CC(=O)N1c2ccc(-c3cnn(C4CC4)c3)c(OC3CNC3)c2CC[C@@H]1C [I-60, (S)-1-(5-(azetidin-3-yloxy)-6-(1-cyclopropyl-1H-pyrazol-4-yl)-2-methyl-3,4-dihydroquinolin-1(2H)-yl)ethanone] | ≤ 5.00 | ≤ 6.30 | < 6.00 | –
3 | COC(=O)N1c2ccc(-c3cnn(C4CCNCC4)c3)c(Oc3ccc(C#N)cc3)c2CC[C@@H]1C [I-146, (S)-methyl 5-(4-cyanophenoxy)-2-methyl-6-(1-(piperidin-4-yl)-1H-pyrazol-4-yl)-3,4-dihydroquinoline-1(2H)-carboxylate] | 6.00 to 7.00 | 6.30 to 7.30 | > 6.30 | –
4 | CC(=O)N1c2ccc(-c3cnn(C4CC4)c3)c(OC3CCCC3)c2CC[C@@H]1C [I-396] | 6.00 to 7.00 | > 7.30 | > 6.30 | –
5 | COC(=O)N1c2ccc(-c3cnn(C4CCNCC4)c3)c(Oc3ccc(Cl)cc3C#N)c2CC[C@@H]1C [I-132, (S)-methyl 5-(4-chloro-2-cyanophenoxy)-2-methyl-6-(1-(piperidin-4-yl)-1H-pyrazol-4-yl)-3,4-dihydroquinoline-1(2H)-carboxylate] | 6.00 to 7.00 | > 7.30 | > 6.30 | –
6 | CC(=O)N1c2ccc(-c3cnn(C4CC4)c3)c(OCC3CCOCC3)c2CC[C@@H]1C [I-400] | 6.00 to 7.00 | 6.30 to 7.30 | > 6.30 | –
7 | CC(=O)N1c2ccc(-c3cnn(CCO)c3)c(OCC(C)C)c2CC[C@@H]1C [I-422] | 6.00 to 7.00 | > 7.30 | > 6.30 | –
8 | CC(=O)N1c2ccc(-c3cnn(C4CCN(C)CC4)c3)c(Oc3ccccc3C#N)c2CC[C@@H]1C [I-246, (S)-2-((1-acetyl-2-methyl-6-(1-(1-methylpiperidin-4-yl)-1H-pyrazol-4-yl)-1,2,3,4-tetrahydroquinolin-5-yl)oxy)benzonitrile] | 6.00 to 7.00 | > 7.30 | > 6.30 | –
9 | CC(=O)N1c2ccc(-c3cnn(CCS(C)(=O)=O)c3)c(OCC3CCCC3)c2CC[C@@H]1C [I-424] | 6.00 to 7.00 | > 7.30 | > 6.30 | –
10 | CCCOc1c(-c2cnn(C3CCNCC3)c2)ccc2c1CC[C@H](C)N2C(=O)OC [I-107, (S)-methyl 2-methyl-6-(1-(piperidin-4-yl)-1H-pyrazol-4-yl)-5-propoxy-3,4-dihydroquinoline-1(2H)-carboxylate] | 6.00 to 7.00 | 6.30 to 7.30 | – | > 6.30
11 | CC(=O)N1c2ccc(-c3cnn(C4CC4)c3)c(OCC3CC3)c2CC[C@@H]1C [I-390] | 6.00 to 7.00 | > 7.30 | > 6.30 | –
12 | COC(=O)N1c2ccc(-c3cnn(C4CC4)c3)c(Oc3ccc(C(N)=O)cc3)c2CC[C@@H]1C [I-216, (S)-methyl 5-(4-carbamoylphenoxy)-6-(1-cyclopropyl-1H-pyrazol-4-yl)-2-methyl-3,4-dihydroquinoline-1(2H)-carboxylate] | 6.00 to 7.00 | > 7.30 | > 6.30 | –
13 | CCCOc1c(-c2cnn(CCO)c2)ccc2c1CC[C@H](C)N2C(C)=O [I-1, (S)-1-(6-(1-(2-hydroxyethyl)-1H-pyrazol-4-yl)-2-methyl-5-propoxy-3,4-dihydroquinolin-1 (2H)-yl)ethanone] | 6.00 to 7.00 | 6.30 to 7.30 | – | > 6.30
14 | C[C@H]1CCc2c(ccc(-c3cnn(C4CCNCC4)c3)c2Oc2ccccc2)N1C(=O)C1CC1 [I-168, (S)-cyclopropyl(2-methyl-5-phenoxy-6-(1-(piperidin-4-yl)-1H-pyrazol-4-yl)-3,4-dihydroquinolin-1(2H)-yl)methanone] | 6.00 to 7.00 | > 7.30 | > 6.30 | –
15 | COC(=O)N1c2ccc(-c3cnn(C4CCNC4)c3)c(OC3CCC3)c2CC[C@@H]1C (stereo partly drawn) [I-108, (2S)-methyl 5-cyclobutoxy-2-methyl-6-(1-(pyrrolidin-3-yl)-1H-pyrazol-4-yl)-3,4-dihydroquinoline-1(2H)-carboxylate] | 6.00 to 7.00 | > 7.30 | > 6.30 | –
16 | CC(=O)N1c2ccc(-c3cnn(CC(C)(C)O)c3)c(OC3CCC3)c2CC[C@@H]1C [I-410] | 5.00 to 6.00 | > 7.30 | > 6.30 | –
17 | COC(=O)N1c2ccc(-c3cnn(CC(C)(C)O)c3)c(OC3CCC3)c2CC[C@@H]1C [I-445] | 5.00 to 6.00 | > 7.30 | > 6.30 | –
18 | COC(=O)N1c2ccc(-c3cnn(C4CC4)c3)c(OC(F)(F)C(N)=O)c2CC[C@@H]1C [I-14, (S)-methyl 5-(2-amino-1,1-difluoro-2-oxoethoxy)-6-(1-cyclopropyl-1H-pyrazol-4-yl)-2-methyl-3,4-dihydroquinoline-1(2H)-carboxylate] | 5.00 to 6.00 | 6.30 to 7.30 | < 6.00 | –

Now from value to molecule, other results behind:

Row | pIC50 [1] | pIC50 [2] | pIC50 ([3]; MV4-11, 72 h) | Structure (SMILES) | pIC50 ([3]; 72 hours)
19 | 5.00 to 6.00 | 6.30 to 7.30 | < 6.00 | COC(=O)N1c2ccc(-c3cnn(CCS(C)(=O)=O)c3)c(Oc3ncc(C(F)(F)F)cc3F)c2CC[C@@H]1C [I-588] | –
20 | 5.00 to 6.00 | 6.30 to 7.30 | 6.00 to 6.30 | COC(=O)N1c2ccc(-c3cnn(CCO)c3)c(Oc3ncccc3C(F)(F)F)c2CC[C@@H]1C [I-564] | –
21 | 6.00 to 7.00 | 6.30 to 7.30 | > 6.30 | CC(=O)N1c2ccc(-c3cnn(C4CC4)c3)c(Oc3ccc(C(=O)N(C)C)cc3)c2CC[C@@H]1C [I-595] | –
22 | 5.00 to 6.00 | 6.30 to 7.30 | 6.00 to 6.30 | COC(=O)N1c2ccc(-c3cnn(CC(C)(C)O)c3)c(Oc3ncccc3C#N)c2CC[C@@H]1C [I-567] | –
23 | 5.00 to 6.00 | 6.30 to 7.30 | > 6.30 | COC(=O)N1c2ccc(-c3cnn(CCO)c3)c(Oc3ncccc3C#N)c2CC[C@@H]1C [I-568] | –
24 | 5.00 to 6.00 | 6.30 to 7.30 | 6.00 to 6.30 | COC(=O)c1ccc(Oc2c(-c3cnn(C4CCNCC4)c3)ccc3c2CC[C@H](C)N3C(C)=O)nc1 [I-522] | –
25 | 5.00 to 6.00 | ≤ 6.30 | < 6.00 | CC(=O)N1c2ccc(-c3ccc(OCCN(C)C)cc3)c(OCC(=O)N(C)C)c2CC[C@@H]1C [I-487] | –
26 | 5.00 to 6.00 | 6.30 to 7.30 | > 6.30 | COC(=O)N1c2ccc(-c3cnn(C4CC4)c3)c(Oc3ncc(F)cn3)c2CC[C@@H]1C [I-577] | –
27 | 5.00 to 6.00 | 6.30 to 7.30 | > 6.30 | COC(=O)N1c2ccc(-c3cnn(C4CCNCC4)c3)c(Oc3nccc(C(F)(F)F)n3)c2CC[C@@H]1C [I-528] | –
28 | 5.00 to 6.00 | 6.30 to 7.30 | < 6.00 | COC(=O)N1c2ccc(-c3cnn(C4CC4)c3)c(Oc3ncc(C(F)(F)F)cn3)c2CC[C@@H]1C [I-581] | –
29 | 5.00 to 6.00 | 6.30 to 7.30 | 6.00 to 6.30 | CC(=O)N1c2ccc(-c3cnn(C4CCNCC4)c3)c(Oc3ccnc(C(F)(F)F)n3)c2CC[C@@H]1C [I-515] | –
30 | 5.00 to 6.00 | 6.30 to 7.30 | 6.00 to 6.30 | COC(=O)N1c2ccc(-c3cnn(CCO)c3)c(Oc3ncc(C(F)(F)F)cc3F)c2CC[C@@H]1C [I-590] | –
31 | 5.00 to 6.00 | 6.30 to 7.30 | < 6.00 | COC(=O)N1c2ccc(-c3cnn(C4CC4)c3)c(Oc3ccc(C(F)(F)F)cn3)c2CC[C@@H]1C [I-557] | –
